Experimental data as given in US20240325379A1, “LOW-DOSE NALTREXOL AND USES THEREOF” (AETHER THERAPEUTICS INC., priority 2021, published 2024).
Entries after “also recorded” stand apart in the source; their conditions may differ. Like-named read-outs stand apart in the source and are kept apart here.

Assays:
[1] = system: MOR-μ*; assay: Prevention/reversal of opioid dependence in animal models (FIG. 1, methadone-treated animals); assay type: in vivo, guinea pig; conditions: low dose, no interference with opioid analgesia, no withdrawal
From the text: FIG. 1 provides data showing prevention of withdrawal behavior in methadone-treated animals.

[2] = target: T1, MOR (Homo sapiens, UniProt P35372); conditions: 6β-naltrexol compared with naltrexone; cited from earlier work
[3] = system: peripheral MOR; conditions: methadone maintenance subjects, cited from earlier work
[4] = target: kappa opioid receptors (KOR) (Homo sapiens, UniProt P41145); assay: Inverse agonist activity at KOR pretreated in vitro with KOR agonists; assay type: biochemical
From the text: (§1) High potency in facilitating gradual conversion of the dependent state (elevated MOR-μ*) back to the resting and/or reserve MOR states. Following LD-6B dosing, only a low fractional receptor occupancy is sufficient to reverse the dependent state in a gradual dynamic fashion, further accounting for high potency as an addiction modulator. • 5. When designed to act as an antagonist (doses above the LD-6BN range), potency is expected to increase over time when administered before an opioid agonist, presumably via high MOR-μ* occupancy and thereby more rapid reversal of MOR-μ* back to its resting or reserve states. […] Morphinan analogues of 6BN tend to bind to all opioid receptors with varying potency and efficacy (patents (47)). […] Potency of potential addiction modulators should therefore be tested for binding and efficacy at MOR, DOR (delta), and KOR, to detect differences between them and anticipate potential variation in clinical outcomes.

[5] = Oral bioavailability in rodents; conditions: in vivo
Method: In one embodiment, the dose of 6BN is from 0.001 to 0.25 mg. In another embodiment, the dose of 6BN is from 0.25 to 0.50 mg. In a further embodiment, the dose of 6BN is from 0.50 to 0.75 mg. In a still further embodiment, the dose of 6BN is from 0.75 to 1.0 mg. In a still another embodiment, the dose of 6BN is from 1.0 to 1.25 mg. In another embodiment, the dose of 6BN is from 1.25 to 1.5 mg. In a further embodiment, the dose of 6BN is from 1.5 to 1.75 mg. In a still further embodiment, the dose of 6BN is from 1.75 to 2.0 mg. In a still further embodiment, the dose of 6BN is from 2.0 to 3.0 mg. These projected dose ranges can be modified once clinical results with LD-6BN are available (for example oral bioavailability, estimated here to be ˜30% as observed in rodents.

[6] = Water solubility; assay type: physicochemical
From the text: (§2) Additional preferred formulations include transdermal patch application and intranasal application (with partial direct access to the brain, bypassing the blood-brain-barrier). When combined with opioid analgesics in a co-formulation, LD-6BN can be delivered in the same formulation type for any of the opioid analgesics currently used clinically, including sustained release oral preparations. No dosage adjustments are needed.

[7] = system: peripheral sensory neurons; conditions: after washing out the drugs, 6BN tested at 10 μM; cited from earlier work
[8] = system: MOR; assay: Antagonist potency when administered before morphine in mice; assay type: in vivo; conditions: for change of antagonist potency when given before morphine compared to the same time: ~2 h before morphine
[9] = humans; cited from earlier work
[10] = Blood and brain levels of 6BN after s.c. doses (FIG. 3); assay type: in vivo, guinea pigs
Method: Therefore, when serving as an addiction modulator, LD-6BN interacts effectively with both peripheral and central opioid receptors. Its effect on reversing opioid induced hyperalgesia might at least in part occur by acting on MOR in peripheral nociceptor neurons (15), but reversal of opioid dependence is likely driven by a central effect. The level of MOR bound 6BN after an s.c. dose of 0.02 mg/kg is estimated to occupy ˜10% of MOR sites, assuring a gradual reversal of MOR-μ* to MOR-μ and MOR-μ^x, insufficient to interfere with opioid analgesia, or cause withdrawal in dependent subjects.
as §1

[11] = system: morphine induced slowing of bowel movements; conditions: cited from earlier work
[12] = Oral bioavailability in humans; conditions: human, in vivo
From the text: as §2

[13] = system: MOR; conditions: opioid detoxification/weaning with descending doses of buprenorphine; cited from earlier work
[14] = target: T1, MOR; conditions: in vivo
From the text: (§3) The invention embodies usage of any of these compounds or derivatives or metabolites thereof.

[15] = target: T1, MOR; assay: MOR affinity (in vitro binding)
[16] = target: T1, MOR; assay: Neutral antagonism at MOR
From the text: as §3

T1 sequence (P35372 whole entry): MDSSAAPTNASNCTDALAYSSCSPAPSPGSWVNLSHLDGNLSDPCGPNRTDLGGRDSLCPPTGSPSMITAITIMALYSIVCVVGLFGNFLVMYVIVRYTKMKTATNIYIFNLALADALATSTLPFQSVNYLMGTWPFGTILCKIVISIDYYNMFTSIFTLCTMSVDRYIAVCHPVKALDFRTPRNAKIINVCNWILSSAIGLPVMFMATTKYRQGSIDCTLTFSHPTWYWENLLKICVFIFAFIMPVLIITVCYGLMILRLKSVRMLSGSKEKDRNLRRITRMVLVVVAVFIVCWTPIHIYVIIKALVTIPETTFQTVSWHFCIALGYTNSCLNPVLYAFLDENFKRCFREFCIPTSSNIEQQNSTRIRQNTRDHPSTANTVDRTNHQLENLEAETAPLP
Sequence of kappa opioid receptors (KOR) (P41145 whole entry): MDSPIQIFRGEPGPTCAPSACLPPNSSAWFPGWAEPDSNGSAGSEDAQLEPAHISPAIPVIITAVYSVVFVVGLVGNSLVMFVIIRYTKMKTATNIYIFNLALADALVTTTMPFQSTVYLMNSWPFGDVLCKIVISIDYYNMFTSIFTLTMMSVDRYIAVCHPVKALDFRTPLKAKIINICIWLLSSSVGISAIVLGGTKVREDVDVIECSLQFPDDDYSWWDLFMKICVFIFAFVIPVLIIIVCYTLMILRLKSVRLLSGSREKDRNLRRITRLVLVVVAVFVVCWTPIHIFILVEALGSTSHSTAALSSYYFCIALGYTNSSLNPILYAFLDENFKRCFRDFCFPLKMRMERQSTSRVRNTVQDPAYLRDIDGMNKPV

## Oc1ccc2c3c1O[C@H]1[C@H](O)CC[C@@]4(O)[C@@H](C2)N(CC2CC2)CC[C@]314 [6BN, 6β-naltrexol]
[1]; listed as 6β-Naltrexol
  reversal/prevention of the opioid dependent state: extreme potency
[1]; listed as 6β-naltrexol
  reversal/prevention of the opioid dependent state: reverses the dependent state with high potency
[2]
  affinity for MOR: nearly equally robust affinities
[3]; 0.5-1.0 mg i.v.
  central withdrawal symptoms: no central withdrawal symptoms
[3]; i.v., peripheral effects and bowel movements experienced
  tolerated i.v. dose: 0.5 to 1.0 mg
[4]
  activity at KOR pretreated with KOR agonists: detectable inverse agonist activity
[5]
  bioavailability: ~30%
[6]
  water solubility: highly water soluble
[7]
  effect on MOR-μ* state: reverses MOR-μ* back to the inactive state
[8]; high doses
  pre-injection time of maximal delayed antagonist action: ~2 h
[8]
  change of antagonist potency when given before morphine compared to the same time: becomes more potent as an antagonist
[9]
  half-life in blood: ~12 h
[10]; Cavia porcellus, sc, after an s.c. dose of 0.02 mg/kg, estimated, read-out: occupancy of MOR sites by bound 6BN
  receptor occupancy at 0.02 mg/kg: ~10%
[10]; guinea pig, blood, sc, 1 mg/kg s.c., guinea pigs, read-out: initial blood t1/2 (converted)
  half-life: ~1 h
[10]; guinea pig, brain, sc, 24 h after a 1 mg/kg s.c. dose, guinea pigs, read-out: brain level
  concentration at 24 h: 0.5 ng/g
[10]; guinea pig, in vivo
  blood-brain-barrier penetration: slowly
[11]; 20 mg, highest dose tested, administered 30 min before morphine
  suppression of analgesia: did not suppress analgesia
[11]; i.v., against 10 mg morphine, opioid naïve subjects
  ID50 against morphine induced slowing of bowel movements: ~3 mg
[12]
  bioavailability: ~30%

## O=C1CC[C@@]2(O)[C@H]3Cc4ccc(O)c5c4[C@@]2(CCN3CC2CC2)[C@H]1O5 [naltrexone, reference compound]
[7]
  effect on MOR-μ* state: lock MOR into the active MOR-μ* state while blocking MOR-μ* signaling
[13]
  initial total oral dose above which withdrawal symptoms occur: ≤ 0.25 mg

## CC(=O)N[C@@H]1CC[C@@]2(O)[C@H]3Cc4ccc(O)c5c4[C@@]2(CCN3CC2CC2)[C@@H]1O5 [6β-naltrexamide]
[14]
  peripheral selectivity: peripheral selectivity
[14]; listed as 6β-Natrexamide
  peripheral selectivity: strong peripherally selective activity
[15]
  affinity to MOR in vitro: high affinity
[8]
  change of antagonist potency when given before morphine compared to the same time: gains potency; also recorded: increasing potency as a neutral antagonist
[16]
  potency as a neutral antagonist: low potency as a neutral antagonist
  type of antagonism: neutral antagonism
